The record followed here is publication PMC12561106, “STOP Strategy to Inhibit P. falciparum and S. aureus Growth: Molecular Mechanism Studies on Purposely Designed Hybrids” (Antibiotics, 2025).

Holding throughout (assay type): cell-based
One data set relates to E. coli ATCC 25923. In words: broth microdilution antimicrobial assay (MIC). As to conditions: Escherichia coli, ATCC25923, 24 h, range 100–0.19 µM.
Data set [1] relates to P. falciparum CQ-sensitive (CQ-S) D10 strain. Nature of the data set: antiplasmodial drug susceptibility assay (pLDH), CQ-sensitive strain. As to conditions: Plasmodium falciparum; P. falciparum D10, 72 h, pLDH; mean value with standard deviation; read-out: IC50 D10 (CQ-S). On the procedure:
(§1) P. falciparum cultures were carried out according to Trager and Jensen with slight modifications. The CQ-sensitive strain D10 and the CQ-resistant strain W2 were maintained at 5% hematocrit (human A-positive erythrocytes) in RPMI 1640 medium (EuroClone S.p.A, Milan, Italy) with the addition of 1% AlbuMax (Invitrogen, San Diego, California, USA), 0.01% hypoxanthine, 20 mM Hepes, and 2 mM glutamine at 37 °C in a standard gas mixture (1% O2, 5% CO2, and 94% N2). […] Drugs were placed in 96-well flat-bottomed microplates, and serial dilutions were made. Asynchronous cultures with parasitaemia of 1–1.5% and 1% final hematocrit were aliquoted into the plates and incubated for 72 h at 37 °C. Parasite growth was determined spectrophotometrically (OD650nm) by measuring the activity of the parasite lactate dehydrogenase (pLDH), as described in a modified version of Makler’s method in control- and drug-treated cultures. The antiplasmodial activity is expressed as 50% inhibitory concentrations (IC50); each IC50 value is the mean ± standard deviation of at least three separate experiments performed in duplicate.

Data set [2] deals with P. falciparum CQ-resistant (CQ-R) W2 strain. In words: antiplasmodial drug susceptibility assay (pLDH), CQ-resistant strain. As to conditions: Plasmodium falciparum; P. falciparum W2, 72 h, pLDH; mean value with standard deviation; read-out: IC50 W2 (CQ-R). The procedure:
as §1

In a further data set the test system is C. albicans ATCC 10231. Nature of the data set: broth microdilution antifungal assay (MIC). Particulars: Candida albicans, ATCC10231, 24 h, range 100–0.19 µM. On the procedure: The reference strain of Candida albicans (ATCC 10231) was used in the present study and maintained on Sabouraud Dextrose Agar (Biolife Italiana S.r.l., Milan, Italy) before the antifungal assays.
(§2) The minimum inhibitory concentrations (MICs) were determined using the microbroth dilution method in microtiter plates according to the Clinical and Laboratory Standards Institute (CLSI) guidelines. In short, microbial inocula were prepared at 0.5 McFarland in PBS and, subsequently, bacterial suspensions were diluted 1:200 in Mueller–Hinton broth (Sigma-Aldrich, St. Louis, MO, USA), while fungal inoculum was diluted 1:20 in RPMI-1640 medium (Gibco®, ThermoFisher Scientific Inc., Waltham, MA, USA), containing glucose 2%, 0.3% levo-glutamine buffered to pH 7.0 with 0.165 M 3-(N-morpholino)propanesulfonic acid (MOPS). A total of 100 µL of these microbial suspensions was introduced into a 96-well microplate and incubated with 100 µL of the compounds, two-fold serially diluted in the range of 100–0.19 µM. Positive controls (microbial suspensions in regular media), negative controls (only compounds), solvent controls (microbial suspensions incubated with DMSO dilutions), and the reference drug controls were included in the tests. The plate was incubated at 37 °C for 24 h, and subsequently the optical density at 630 nm (OD630nm) was spectrophotometrically measured. Experiments were performed in triplicate with three biological replicates. In addition to MIC, IC50 values were measured for the active compounds. The values, corresponding to the concentration of the compound giving rise to an inhibition of growth of 50%, were obtained by interpolation on dose–response curves generated by plotting the percentages of growth inhibition, relative to the positive control (set to 100% of growth), as a function of the tested concentrations (on a logarithm scale). Statistical analysis was carried out by using GraphPad Prism version 9.4.1 for Windows (GraphPad Software, San Diego, CA, USA, www.graphpad.com).
(In general: Dilution methods test growth across graded concentrations, often in twofold steps.)

Data set [3] is described as follows: cell viability and proliferation assay (CCK-8/WST8). Particulars: human, WS1 cells (human-derived fibroblasts, ATCC CRL-1502), mean value with standard deviation. On the procedure: WS1 cells (ATCC CRL-1502) were selected as a model system to investigate the effect of PTZ-quinoline hybrid compounds on human-derived fibroblasts. Briefly, cells were cultured in DMEM-High glucose supplemented with 10% fetal bovine serum (FBS) (Carlo Erba Reagents, Milan, Italy), 100 U/mL penicillin, and 100 µg/mL streptomycin at 37 °C with 5% CO2. For experiments, cells were seeded into 96-well plates at 0.7 × 10^4 cells/well, and incubated at 37 °C for 24 h. […] Cell viability was assessed by a WST8-based assay according to the manufacturer’s instructions (CCK-8, Cell Counting Kit-8, Dojindo Molecular Technologies, Rockville, MD, USA). After 48 h of incubation, culture medium was removed from each well, the monolayer was washed with PBS, and 100 µL of fresh medium containing 10 µL of CCK-8 solution was added. Following a 2 h incubation at 37 °C, the OD450nm was read, and data were expressed as the percentage of cell viability relative to the untreated controls. The CC50 was obtained on the corresponding dose–response curves generated as previously reported for IC50 values. Experiments were carried out in triplicate in three biological replicates.

The subject of a further data set is S. aureus ATCC 25923. In words: broth microdilution antimicrobial assay (MIC, IC50). Particulars: Staphylococcus aureus, ATCC25923; for MIC: broth microdilution, 24 h, range 100–0.19 µM.
Excerpt: (§3) Reference bacterial strains of Staphylococcus aureus (ATCC 25923) and Escherichia coli (ATCC 25922) were used in this study as Gram-positive and negative models, respectively. These reference strains were purchased from the American Type Culture Collection (ATCC, Manassas, VA, USA). Clinical isolates, identified by MALDI-TOF MS (Bruker Daltonik, GmbH, Bremen, Germany), were profiled for their antibiotic susceptibility by using the Vitek2 semiautomated system (bioMérieux, Craponne, France) and according to EUCAST (Version 12, 2022, http://www.eucast.org (accessed on 1 January 2022)). The bacterial cultures were routinely grown on 5% blood agar plates (Biolife Italiana S.r.l., Milan, Italy) and were freshly used in the antibacterial assays.
as §2

Data set [4] deals with clinical isolates of methicillin-resistant S. aureus (MRSA). In words: broth microdilution IC50 on MRSA clinical isolates. Particulars: Staphylococcus aureus; five MRSA clinical isolates, range of IC50; read-out: IC50 ranges, MRSA (n = 5).
Excerpt: as §3, §2

Where [5] appears, read: S. aureus ATCC 25923, 24 h, OD630, mean value with standard deviation, read-out: IC50 ATCC 25923.
Setting [6] is: reference strain, range of IC50, read-out: IC50 ranges, ATCC 25923.

≈ marks a conversion by molar mass, not a printed value. Read-outs that look alike come from different tables or passages of the source.

In general, MIC refers to the least concentration at which growth counts as inhibited. Read a high MIC as a less susceptible organism. The term IC50 denotes the midpoint of a concentration-inhibition curve. Usually CC50 stands for the concentration at which the toxic effect on the cells reaches its halfway point. `Clc1ccc2c(N3CCN(CCCCCN4c5ccccc5Sc5ccccc54)CC3)ccnc2c1` [Compound 3, 10-(5-(4-(7-chloroquinolin-4-yl)piperazin-1-yl)pentyl)-10H-phenothiazine]: the MIC against E. coli ATCC 25923, against C. albicans ATCC 10231 and in the data set with S. aureus ATCC 25923 was greater than 100 µM each time. Also, the values for the IC50 in data set [1] and in data set [2] were 2.34 ± 0.012 µM and 0.99 ± 0.245 µM, respectively. In addition, the CC50 at 48 h in data set [3] was greater than 100 µM.
With `Clc1ccc2c(NCCn3cc(CN4c5ccccc5Sc5ccccc54)nn3)ccnc2c1` [Compound 4a, N-(2-(4-((10H-phenothiazin-10-yl)methyl)-1H-1,2,3-triazol-1-yl)ethyl)-7-chloroquinolin-4-amine], the MIC in the data set on E. coli ATCC 25923 is greater than 100 µM; in the data set on C. albicans ATCC 10231, greater than 100 µM; in the data set on S. aureus ATCC 25923 it was 12.5 µM (≈ 6.06 µg/mL). In addition, the IC50 was 0.142 ± 0.02 µM in data set [1]; 0.2 ± 0.03 µM in data set [2]; 7.75 to 8.98 µM in data set [4]; 7.49 ± 0.15 µM in the data set with S. aureus ATCC 25923 (setting [5]); 7.34 to 7.64 µM in the data set on S. aureus ATCC 25923 (setting [6]). For the same compound, the CC50 at 48 h in data set [3] amounted to 17.9 ± 3.23 µM.
Consider `Clc1ccc2c(c1)N(Cc1cn(CCNc3ccnc4cc(Cl)ccc34)nn1)c1ccccc1S2` [Compound 4b, 7-chloro-N-(2-(4-((2-chloro-10H-phenothiazin-10-yl)methyl)-1H-1,2,3-triazol-1-yl)ethyl)quinolin-4-amine], for which the figures for the MIC with E. coli ATCC 25923, in the data set on C. albicans ATCC 10231 and against S. aureus ATCC 25923 were greater than 100 µM, greater than 100 µM and 6.25 to 12.5 µM (≈ 3.25 to 6.49 µg/mL), respectively. Also, the IC50 in data set [1] is 0.156 ± 0.018 µM; in data set [2] it was 0.154 ± 0.002 µM; in data set [4] it was 4.42 to 6.48 µM; with S. aureus ATCC 25923 (setting [5]), 4.86 ± 0.89 µM; with S. aureus ATCC 25923 (setting [6]) it was 3.97 to 5.75 µM. This compound also showed a CC50 at 48 h in data set [3] of 12.7 ± 3.51 µM.
In the case of `Clc1ccc2c(NCCCn3cc(CN4c5ccccc5Sc5ccccc54)nn3)ccnc2c1` [Compound 5a, N-(3-(4-((10H-phenothiazin-10-yl)methyl)-1H-1,2,3-triazol-1-yl)propyl)-7-chloroquinolin-4-amine], the MIC against E. coli ATCC 25923 was greater than 100 µM; with C. albicans ATCC 10231, greater than 100 µM; against S. aureus ATCC 25923, 12.5 µM (≈ 6.24 µg/mL). Moreover, the IC50 is 0.292 ± 0.078 µM in data set [1]; 0.174 ± 0.025 µM in data set [2]; 6.4 to 9.63 µM in data set [4]; 6.73 ± 1.32 µM in the data set with S. aureus ATCC 25923 (setting [5]); 5.41 to 8.05 µM with S. aureus ATCC 25923 (setting [6]). The compound also returned a CC50 at 48 h in data set [3] of 11.8 ± 0.14 µM.
Regarding `Clc1ccc2c(c1)N(Cc1cn(CCCNc3ccnc4cc(Cl)ccc34)nn1)c1ccccc1S2` [Compound 5b, 7-chloro-N-(3-(4-((2-chloro-10H-phenothiazin-10-yl)methyl)-1H-1,2,3-triazol-1-yl)propyl)quinolin-4-amine], the results for the MIC against E. coli ATCC 25923, against C. albicans ATCC 10231 and with S. aureus ATCC 25923 were greater than 100 µM, greater than 100 µM and 6.25 to 12.5 µM (≈ 3.33 to 6.67 µg/mL), respectively. For the same compound, the IC50 in data set [1] is 0.146 ± 0.006 µM; in data set [2] it was 0.135 ± 0.017 µM; in data set [4], 6.18 to 10.3 µM; in the data set on S. aureus ATCC 25923 (setting [5]), 5.03 ± 1.72 µM; in the data set with S. aureus ATCC 25923 (setting [6]), 3.31 to 6.75 µM. The compound also displayed a CC50 at 48 h in data set [3] of 22.1 ± 0.66 µM.
As to `Clc1ccc2c(NCCCCCn3cc(CN4c5ccccc5Sc5ccccc54)nn3)ccnc2c1` [Compound 6a, N-(5-(4-((10H-phenothiazin-10-yl)methyl)-1H-1,2,3-triazol-1-yl)pentyl)-7-chloroquinolin-4-amine], the MIC against E. coli ATCC 25923, against C. albicans ATCC 10231 and with S. aureus ATCC 25923 was greater than 100 µM in each case. In addition, the IC50 in data set [1] was 0.326 ± 0.12 µM; in data set [2], 0.377 ± 0.066 µM. Moreover, the CC50 at 48 h in data set [3] was 48.3 ± 0.9 µM.
For the compound `Clc1ccc2c(c1)N(Cc1cn(CCCCCNc3ccnc4cc(Cl)ccc34)nn1)c1ccccc1S2` [Compound 6b, 7-chloro-N-(5-(4-((2-chloro-10H-phenothiazin-10-yl)methyl)-1H-1,2,3-triazol-1-yl)pentyl)quinolin-4-amine], the values for the MIC in the data set with E. coli ATCC 25923, in the data set on C. albicans ATCC 10231 and against S. aureus ATCC 25923 were greater than 100 µM, greater than 100 µM and 50 µM (≈ 28.1 µg/mL), respectively. Moreover, the concentration for half-maximal inhibition (IC50) in data set [1] is 0.602 ± 0.314 µM; in data set [2], 0.184 ± 0.093 µM; in the data set on S. aureus ATCC 25923 (setting [5]), 25.1 ± 1.76 µM. In addition, the CC50 at 48 h in data set [3] stood at 34.3 ± 0.52 µM.
Turning to `Clc1ccc2c(N3CCN(CCCn4cc(CN5c6ccccc6Sc6ccccc65)nn4)CC3)ccnc2c1` [Compound 8, 10-((1-(3-(4-(7-chloroquinolin-4-yl)piperazin-1-yl)propyl)-1H-1,2,3-triazol-4-yl)methyl)-10H-phenothiazine], the MIC in the data set with E. coli ATCC 25923, against C. albicans ATCC 10231 and in the data set on S. aureus ATCC 25923 was greater than 100 µM in each case. In addition, the IC50 in data set [1] was determined as 12.6 ± 0.241 µM; in data set [2], 2.17 ± 0.243 µM. The compound further showed a CC50 at 48 h in data set [3] greater than 100 µM.
